The text below walks through data of patent US10201533B2, “Substituted quinolizine derivatives useful as HIV integrase inhibitors” (priority 2013, dated 2019).

Like-named read-outs stand apart in the source and are kept apart here.

The assay has as its system HIV-1 (NL4-3 strain). The experiment in a line: microbe, parasite or virus in culture. The class given is cell-based. The following applies: MT4-GFP cells infected with HIV-1 NL4-3, IP or IC50 from 4-parameter dose response curve.
[1] abbreviates: Human immunodeficiency virus 1, NL43, 0% normal human serum (NHS), read-out: WILD TYPE CELL ASSAY Viking IP (0% NHS).
Where [2] appears, read: Human immunodeficiency virus 1, NL43, 100% normal human serum (NHS), read-out: WILD TYPE CELL ASSAY Viking IP (100% NHS).

In the case of `COCCO[C@]12CCCC[C@@]1(C)C(=O)c1c(O)c(=O)c(C(=O)NCc3ccc(F)cc3F)cn1C2` [Compound 115], the IC50 runs as follows: under setting [1], 1.4 nM; under setting [2], 225 nM.

Take `COCCCO[C@@]12CCCC[C@]1(C)C(=O)c1c(O)c(=O)c(C(=O)NCc3ccc(F)cc3F)cn1C2` [Compound 116]: the IC50 reads like this: under setting [1], 2.3 nM; under setting [2], 256 nM.

As to `COCCCO[C@]12CCCC[C@@]1(C)C(=O)c1c(O)c(=O)c(C(=O)NCc3ccc(F)cc3F)cn1C2` [Compound 117], the IC50 runs as follows: under setting [1], 2.5 nM; under setting [2], 1440 nM.

For `CO[C@@]12CCCCC[C@]1(C)C(=O)c1c(O)c(=O)c(C(=O)NCc3ccc(F)cc3F)cn1C2` [Compound 118], the IC50 was determined as 1.4 nM under setting [1] and 873 nM under setting [2].

Take `CO[C@]12CCCCC[C@@]1(C)C(=O)c1c(O)c(=O)c(C(=O)NCc3ccc(F)cc3F)cn1C2` [Compound 119]: the IC50 is 2.1 nM under setting [1] and 2060 nM under setting [2].

As to `CC[C@]12CCCO[C@@H]1Cn1cc(C(=O)NCc3ccc(F)cc3F)c(=O)c(O)c1C2=O` [Compound 120], the IC50 is, setting by setting: under setting [1], 0.8 nM; under setting [2], 116 nM.

As for `C[C@]12CCCN[C@H]1Cn1cc(C(=O)NCc3ccc(F)cc3F)c(=O)c(O)c1C2=O` [Compound 121], the IC50 came out at 2.6 nM under setting [1] and 62 nM under setting [2].

With `C[C@]12CCCN[C@H]1Cn1cc(C(=O)NCc3ccc(F)cc3F)c(=O)c(O)c1C2=O` [Compound 122], the IC50 is 3.3 nM (0% normal human serum (NHS), read-out: WILD TYPE CELL ASSAY Viking IP (0% NHS)) and 35 nM (100% normal human serum (NHS), read-out: WILD TYPE CELL ASSAY Viking IP (100% NHS)).

As for `CN1CCC[C@]2(C)C(=O)c3c(O)c(=O)c(C(=O)NCc4ccc(F)cc4F)cn3C[C@H]12` [Compound 124], the IC50 worked out at 3.2 nM under setting [1] and 53 nM under setting [2].
